These results are taken from patent US20230117034A1, “PYRAZOLOTRIAZINES” (Bayer Aktiengesellschaft, priority 2019, published 2023).

For one experiment, the target named is T1, CDK9/CycT1 (Homo sapiens, UniProt P50750).
T1 construct: Recombinant full-length His-tagged human CDK9 and CycT1; purchased Life Technologies PV4131; host or cells: insect cells
The experiment is described as follows: CDK9/CycT1 high ATP kinase assay (TR-FRET, 2 mM ATP). As to conditions: 2 mM ATP (high ATP); median; read-out: CDK9/CyclinT1, 2 mM ATP (high ATP), IC50 (median). It is filed as biochemical. In outline: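 Full-length His-tagged human CDK9/CycT1 (insect cell, ~0.5 μg/mL) preincubated 15 min at 22 °C with compound in Tris pH 8.0, MgCl2, DTT buffer before reaction with biotinylated peptide substrate at high ATP (2 mM).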

In experiment [1] the target is T2, CDK12 (nuclear staining in CAL-120 cells) (Homo sapiens, UniProt Q9NYV4).
T2 construct: endogenous in cells; host or cells: CAL-120 human breast cancer cells (DSMZ ACC 459)
T2 sequence (Q9NYV4 whole entry): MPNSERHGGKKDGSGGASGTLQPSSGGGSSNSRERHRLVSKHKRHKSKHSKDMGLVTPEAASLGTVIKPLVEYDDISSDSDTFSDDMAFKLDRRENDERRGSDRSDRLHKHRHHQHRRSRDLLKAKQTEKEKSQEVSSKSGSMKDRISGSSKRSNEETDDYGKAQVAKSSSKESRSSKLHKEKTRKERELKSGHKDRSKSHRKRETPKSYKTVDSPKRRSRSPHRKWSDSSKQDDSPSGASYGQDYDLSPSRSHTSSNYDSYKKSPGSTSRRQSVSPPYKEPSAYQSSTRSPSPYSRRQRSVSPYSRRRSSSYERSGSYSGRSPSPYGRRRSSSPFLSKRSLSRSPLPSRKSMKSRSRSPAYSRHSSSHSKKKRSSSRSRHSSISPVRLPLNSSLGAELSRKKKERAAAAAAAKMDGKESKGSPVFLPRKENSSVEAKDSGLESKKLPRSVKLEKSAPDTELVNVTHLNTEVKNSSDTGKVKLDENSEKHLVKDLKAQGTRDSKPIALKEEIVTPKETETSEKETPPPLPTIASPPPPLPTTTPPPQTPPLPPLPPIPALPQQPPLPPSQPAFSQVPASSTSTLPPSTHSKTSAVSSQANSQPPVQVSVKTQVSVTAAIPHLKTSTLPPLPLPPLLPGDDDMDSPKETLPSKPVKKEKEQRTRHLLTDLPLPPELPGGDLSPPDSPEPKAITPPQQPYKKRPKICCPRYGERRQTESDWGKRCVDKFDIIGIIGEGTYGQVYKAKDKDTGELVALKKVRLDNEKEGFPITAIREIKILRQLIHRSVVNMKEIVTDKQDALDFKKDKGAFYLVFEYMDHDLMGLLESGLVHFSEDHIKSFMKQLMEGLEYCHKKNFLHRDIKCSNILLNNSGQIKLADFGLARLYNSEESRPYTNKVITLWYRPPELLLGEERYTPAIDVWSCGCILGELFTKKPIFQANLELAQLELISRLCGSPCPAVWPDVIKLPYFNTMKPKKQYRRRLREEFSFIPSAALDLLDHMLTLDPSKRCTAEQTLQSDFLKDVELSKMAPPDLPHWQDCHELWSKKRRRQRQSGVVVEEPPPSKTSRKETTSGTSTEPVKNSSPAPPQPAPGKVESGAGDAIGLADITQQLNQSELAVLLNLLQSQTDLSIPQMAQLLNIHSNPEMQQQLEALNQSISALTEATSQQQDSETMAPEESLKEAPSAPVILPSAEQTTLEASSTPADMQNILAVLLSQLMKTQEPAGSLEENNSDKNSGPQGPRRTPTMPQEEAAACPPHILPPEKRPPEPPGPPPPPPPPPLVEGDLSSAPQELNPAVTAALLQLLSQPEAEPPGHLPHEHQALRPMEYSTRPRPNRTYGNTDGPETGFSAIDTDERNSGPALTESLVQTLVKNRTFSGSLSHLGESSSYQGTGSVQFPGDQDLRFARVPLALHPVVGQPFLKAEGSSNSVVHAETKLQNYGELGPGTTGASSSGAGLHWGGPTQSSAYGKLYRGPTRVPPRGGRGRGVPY
T2 sequence (O75909 whole entry partner): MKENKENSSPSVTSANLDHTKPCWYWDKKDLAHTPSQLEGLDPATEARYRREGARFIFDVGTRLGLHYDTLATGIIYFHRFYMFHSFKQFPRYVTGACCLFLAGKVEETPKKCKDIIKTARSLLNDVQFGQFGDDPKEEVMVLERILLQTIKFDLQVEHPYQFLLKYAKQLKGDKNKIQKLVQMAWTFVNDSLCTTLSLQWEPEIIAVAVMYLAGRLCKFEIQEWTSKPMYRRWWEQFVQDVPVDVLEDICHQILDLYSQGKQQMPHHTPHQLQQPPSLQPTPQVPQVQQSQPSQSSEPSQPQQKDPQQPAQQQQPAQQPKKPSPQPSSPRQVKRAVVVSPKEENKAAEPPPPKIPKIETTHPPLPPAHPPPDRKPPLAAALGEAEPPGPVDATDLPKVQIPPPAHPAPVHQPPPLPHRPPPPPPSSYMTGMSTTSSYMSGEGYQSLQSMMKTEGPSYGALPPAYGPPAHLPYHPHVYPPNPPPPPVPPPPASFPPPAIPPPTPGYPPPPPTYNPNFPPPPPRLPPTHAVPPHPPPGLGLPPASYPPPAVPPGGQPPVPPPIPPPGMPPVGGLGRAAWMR
Briefly: CDK12 nuclear protein level: immunofluorescence/high content analysis (CAL-120). Type of experiment: cell-based. As to conditions: for DC50: CAL-120 cells, 24 h, immunofluorescence, 50% reduction of nuclear CDK12 staining intensity, median, read-out: CDK12 degradation IF, DC50- [mol/l] (median); for (IC50 CDK12 high ATP) to (Degradation DC50 CDK12) ratio: ratio of IC50 CDK12 high ATP kinase assay to DC50 CDK12 degradation (IF, CAL-120). In outline: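 DC50 is the degrader concentration that halves nuclear CDK12 immunofluorescence relative to controls, measured by high-content imaging. CAL-120 cells were exposed to compound for 24 h at 37 °C before PFA fixation, and signal was normalized to DMSO and control wells.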

Experiment [2] has as its target T3, CYCLIN K (nuclear staining in CAL-120 cells) (Homo sapiens, UniProt O75909).
T3 construct: endogenous in cells; host or cells: CAL-120 human breast cancer cells (DSMZ ACC 459)
Briefly: CYCLIN K nuclear protein level: immunofluorescence high content analysis (CAL-120). Type of experiment: cell-based. As to conditions: 24 h, 50% reduction of nuclear CCNK staining intensity, median, read-out: CYCLIN K degradation IF, DC50-[mol/l] (median). In outline: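 Readout is automated confocal image analysis of nuclear cyclin K immunofluorescence (Hoechst nuclei) after PFA fixation. Cells were CAL-120, exposed to compound dose-response 24 h at 37 °C; values are DC50 for halving nuclear CCNK signal relative to DMSO and control wells.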

T3 sequence (O75909 whole entry): as the sequence (O75909 whole entry partner) above
T3 sequence (Q9NYV4 whole entry partner): as the sequence (Q9NYV4 whole entry) above
T1 sequence (P50750 whole entry): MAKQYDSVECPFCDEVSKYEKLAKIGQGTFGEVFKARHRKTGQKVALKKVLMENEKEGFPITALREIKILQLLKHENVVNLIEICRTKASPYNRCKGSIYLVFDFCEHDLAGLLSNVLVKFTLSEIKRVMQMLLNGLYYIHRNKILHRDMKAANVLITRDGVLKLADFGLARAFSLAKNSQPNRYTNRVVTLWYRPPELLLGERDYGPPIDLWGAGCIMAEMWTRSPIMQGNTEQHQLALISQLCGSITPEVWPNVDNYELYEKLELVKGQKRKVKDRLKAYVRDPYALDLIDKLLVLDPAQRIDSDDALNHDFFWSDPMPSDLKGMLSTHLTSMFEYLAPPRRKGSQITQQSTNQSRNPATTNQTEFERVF
T1 sequence (O60563 whole entry partner): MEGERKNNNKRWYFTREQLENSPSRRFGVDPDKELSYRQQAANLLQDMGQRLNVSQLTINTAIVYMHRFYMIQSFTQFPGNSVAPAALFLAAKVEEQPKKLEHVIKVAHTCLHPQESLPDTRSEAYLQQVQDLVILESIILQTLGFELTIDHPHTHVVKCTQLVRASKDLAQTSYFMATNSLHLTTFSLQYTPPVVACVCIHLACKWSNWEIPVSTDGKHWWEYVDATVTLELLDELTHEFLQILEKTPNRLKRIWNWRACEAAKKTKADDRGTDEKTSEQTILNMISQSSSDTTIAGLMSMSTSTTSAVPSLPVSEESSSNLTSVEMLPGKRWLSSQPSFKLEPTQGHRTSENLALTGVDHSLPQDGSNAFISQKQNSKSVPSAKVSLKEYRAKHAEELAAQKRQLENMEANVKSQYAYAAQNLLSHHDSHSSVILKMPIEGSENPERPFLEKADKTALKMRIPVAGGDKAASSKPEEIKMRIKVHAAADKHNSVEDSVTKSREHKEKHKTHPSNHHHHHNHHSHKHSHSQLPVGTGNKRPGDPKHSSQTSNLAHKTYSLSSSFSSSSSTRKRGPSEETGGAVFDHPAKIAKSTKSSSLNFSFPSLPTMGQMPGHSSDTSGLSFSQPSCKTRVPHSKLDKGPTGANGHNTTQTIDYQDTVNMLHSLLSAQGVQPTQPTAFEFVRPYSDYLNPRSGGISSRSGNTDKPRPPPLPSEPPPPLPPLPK

`CCc1cnn2c(NCc3nc4c(OC)cccc4[nH]3)nc(N3CCOCC3)nc12` [Example 433, 8-ethyl-N-[(4-methoxy-1H-benzimidazol-2-yl)methyl]-2-(morpholin-4-yl)pyrazolo[1,5-a][1,3,5]triazin-4-amine]: the IC50 on CDK9/CycT1 is greater than 20000 nM. For the same molecule, in experiment [1], the DC50 was determined as 4.32 nM and the “(IC50 CDK12 high ATP) to (Degradation DC50 CDK12) ratio” value is on record as 626. In experiment [2], the DC50 came to 0.441 nM.
For `Brc1cnn2c(NCc3nnc(-c4ccccc4)[nH]3)nc(N3CCCCC3)nc12` [Example 49, 8-bromo-N-[(5-phenyl-4H-1,2,4-triazol-3-yl)methyl]-2-(piperidin-1-yl)pyrazolo[1,5-a][1,3,5]triazin-4-amine] the same measures were 2610 nM, 41.7 nM, 147 and 5.34 nM.
For `N#Cc1cnn2c(NCc3nc4ccccc4[nH]3)nc(N3CCOCC3)nc12` [Example 43, 4-{[(1H-benzimidazol-2-yl)methyl]amino}-2-(morpholin-4-yl)pyrazolo[1,5-a][1,3,5]triazine-8-carbonitrile] the same measures were greater than 20000 nM, 9.58 nM, greater than 1754 and 5.35 nM.
Taken in the same sequence, the figures for `COc1cccc(-c2nnc(CNc3nc(N4CCOCC4)nc4c(Br)cnn34)[nH]2)c1` [Example 50, 8-bromo-N-{[5-(3-methoxyphenyl)-4H-1,2,4-triazol-3-yl]methyl}-2-(morpholin-4-yl)pyrazolo[1,5-a][1,3,5]triazin-4-amine] were 2010 nM, 12.5 nM, 224 and 4.22 nM.
In the case of `Cc1cnn2c(NCc3nc4c(F)c(F)ccc4[nH]3)nc(N3CCOCC3)nc12` [Example 392, N-[(4,5-difluoro-1H-benzimidazol-2-yl)methyl]-8-methyl-2-(morpholin-4-yl)pyrazolo[1,5-a][1,3,5]triazin-4-amine], at CDK9/CycT1, the IC50 was greater than 20000 nM. For the same molecule, the DC50 in experiment [1] is 6.41 nM; in experiment [2] it was 0.519 nM. Moreover, the “(IC50 CDK12 high ATP) to (Degradation DC50 CDK12) ratio” value in experiment [1] amounted to 682.
